In brackets after ≈: the same amount, converted by molar mass.
Legend:
Assay in all cases: ≥ marks a high value that may be exact or a test limit, other limits are often not marked, values filed in µg/mL are converted to µM
[1] = test system: Cryptococcus neoformans ATCC 32045
[2] = test system: Candida albicans ATCC 10231
[3] = test system: Pseudomonas aeruginosa ATCC 10145
[4] = test system: Escherichia coli ATCC 2592
[5] = test system: Staphylococcus aureus ATCC 33591
Escherichia coli D31 = test system: Escherichia coli D31
[6] = test system: Staphylococcus aureus ATCC 25923
[7] = test system: Pseudomonas aeruginosa ATCC 15442
[8] = test system: Streptococcus mutans ATCC 25175
[9] = test system: Escherichia coli DH5alpha
Staphylococcus xylosus = test system: Staphylococcus xylosus
[10] = test system: Pseudomonas aeruginosa ATCC 27853
[11] = test system: Enterococcus faecalis ATCC 29212
[12] = test system: Staphylococcus aureus ATCC 29213
Escherichia coli UB1005 = test system: Escherichia coli UB1005
[13] = test system: Salmonella enterica subsp. enterica serovar Typhimurium C77-31
[14] = test system: Candida albicans CGMCC 2.2086
[15] = test system: Pseudomonas aeruginosa PAO1
[16] = test system: Staphylococcus aureus ATCC 43300
[17] = test system: Salmonella enterica subsp. enterica serovar Choleraesuis CVCC 503
[18] = test system: Candida parapsilosis CGMCC 2.3989
[19] = test system: Staphylococcus epidermidis ATCC 12228
[20] = test system: Candida tropicalis CGMCC 2.1975
[21] = test system: Salmonella enterica subsp. enterica serovar Typhimurium ATCC 14028
Candida albicans = test system: Candida albicans
Escherichia coli C600 = test system: Escherichia coli C600
[22] = test system: Staphylococcus aureus 209P

`C[C@H](NC(=O)[C@H](CCCCN)NC(=O)[C@H](Cc1ccccc1)NC(=O)[C@H](C)NC(=O)[C@H](CCCCN)NC(=O)[C@H](Cc1ccccc1)NC(=O)[C@H](C)NC(=O)[C@H](CCCCN)NC(=O)[C@H](Cc1ccccc1)NC(=O)[C@H](C)NC(=O)[C@H](CCCCN)NC(=O)[C@H](Cc1ccccc1)NC(=O)[C@H](C)NC(=O)[C@H](CCCCN)NC(=O)[C@H](Cc1ccccc1)NC(=O)[C@H](C)NC(=O)[C@H](CCCCN)NC(=O)[C@H](Cc1ccccc1)NC(=O)[C@H](C)NC(=O)[C@H](CCCCN)NC(=O)[C@H](Cc1ccccc1)NC(=O)[C@H](C)NC(=O)[C@H](CCCCN)NC(=O)[C@H](Cc1ccccc1)NC(=O)[C@H](C)NC(=O)[C@H](CCCCN)NC(=O)[C@@H](N)Cc1ccccc1)C(=O)O` [FKAFKAFKAFKAFKAFKAFKAFKAFKA] showed an MIC [1] of 28.1 µM (≈ 88 µg/mL), an MIC [2] of 113 µM (≈ 354 µg/mL) and an MIC [3] of 6.38 µM (≈ 20 µg/mL). For the same molecule, the MIC [4] was 14 µM (≈ 43.8 µg/mL) and the MIC [5] was 14 µM (≈ 43.8 µg/mL).
With `C[C@H](NC(=O)[C@H](CCCCN)NC(=O)[C@H](Cc1ccccc1)NC(=O)[C@H](C)NC(=O)[C@H](CCCCN)NC(=O)[C@H](Cc1ccccc1)NC(=O)[C@H](C)NC(=O)[C@H](CCCCN)NC(=O)[C@H](Cc1ccccc1)NC(=O)[C@H](C)NC(=O)[C@H](CCCCN)NC(=O)[C@H](Cc1ccccc1)NC(=O)[C@H](C)NC(=O)[C@H](CCCCN)NC(=O)[C@H](Cc1ccccc1)NC(=O)[C@H](C)NC(=O)[C@H](CCCCN)NC(=O)[C@@H](N)Cc1ccccc1)C(=O)O` [FKAFKAFKAFKAFKAFKA] the MIC [1] was 2.7 µM (≈ 5.66 µg/mL), the MIC [2] was 169 µM (≈ 354 µg/mL) and the MIC [3] was at least 47.7 µM. The MIC [4] was 21.2 µM (≈ 44.5 µg/mL) and the MIC [5] was at least 238 µM.
With `CC(C)C[C@H](NC(=O)[C@H](C)NC(=O)[C@H](CC(N)=O)NC(=O)[C@H](Cc1ccccc1)NC(=O)[C@@H](NC(=O)[C@@H](NC(=O)CN)C(C)C)[C@@H](C)O)C(=O)N[C@@H](CCCCN)C(=O)NCC(=O)N[C@H](C(=O)N[C@@H](C)C(=O)N[C@@H](CCCCN)C(=O)N[C@H](C(=O)N[C@H](C(=O)N[C@@H](C)C(=O)N[C@@H](C)C(=O)N[C@@H](CCC(N)=O)C(=O)N[C@@H](CC(C)C)C(=O)N[C@@H](CC(C)C)C(=O)N[C@@H](CCCCN)C(=O)N[C@H](C(=O)N[C@@H](C)C(=O)N[C@@H](CCCN=C(N)N)C(N)=O)[C@@H](C)O)C(C)C)[C@@H](C)O)C(C)C` [GVTFNALKGVAKTVAAQLLKTAR] the MIC (Escherichia coli D31) was at least 64 µM, the MIC [6] was 16 µM (≈ 37.7 µg/mL) and the MIC [2] was over 100 µM. The MIC [7] was at least 100 µM and the MIC [8] was at least 100 µM.
With `CC[C@H](C)[C@H](NC(=O)[C@H](CC(C)C)NC(=O)[C@@H](NC(=O)[C@H](CC(C)C)NC(=O)[C@@H](NC(=O)[C@H](CC(C)C)NC(=O)[C@@H](NC(=O)[C@H](CCCCN)NC(=O)[C@H](CCCN=C(N)N)NC(=O)[C@@H](N)CCCCN)[C@@H](C)CC)[C@@H](C)CC)[C@@H](C)CC)C(=O)N[C@@H](CC(C)C)C(=O)O` [KRKILILILIL] the MIC [9] was at least 64 µM and the MIC (Staphylococcus xylosus) was at least 64 µM.
`CC[C@H](C)[C@H](NC(=O)[C@H](CC(C)C)NC(=O)[C@@H](NC(=O)[C@H](CCCN=C(N)N)NC(=O)[C@H](CCCCN)NC(=O)[C@H](CCCN=C(N)N)NC(=O)[C@H](CCCCN)NC(=O)[C@H](CCCN=C(N)N)NC(=O)[C@H](CCCCN)NC(=O)[C@H](CCCN=C(N)N)NC(=O)[C@H](CCCCN)NC(=O)[C@H](CC(C)C)NC(=O)[C@@H](NC(=O)[C@@H](N)CC(C)C)[C@@H](C)CC)[C@@H](C)CC)C(=O)O` [LILKRKRKRKRILI] showed an MIC [10] of 128 µM (≈ 235 µg/mL), an MIC [9] of at least 64 µM and an MIC (Staphylococcus xylosus) of at least 64 µM.
In the case of `CC(C)C[C@H](NC(=O)[C@H](CCCCN)NC(=O)[C@H](CCCCN)NC(=O)[C@H](CC(C)C)NC(=O)[C@H](CCCN=C(N)N)NC(=O)[C@H](CS)NC(=O)[C@H](C)NC(=O)[C@H](CC(C)C)NC(=O)[C@H](CCCCN)NC(=O)[C@H](CCCCN)NC(=O)[C@@H](N)CC(C)C)C(=O)N[C@@H](C)C(=O)N[C@@H](CS)C(=O)N[C@@H](CCCN=C(N)N)C(N)=O` [LKKLACRLKKLACR], the MIC [11] is reported as over 64 µM, the MIC [12] is reported as 64 µM (≈ 105 µg/mL) and the MIC [10] is reported as 32 µM (≈ 52.6 µg/mL). It also gave an MIC (Escherichia coli UB1005) of at least 32 µM, an MIC [13] of at least 32 µM and an MIC [14] of at least 64 µM. It also gave an MIC [15] of 16 µM (≈ 26.3 µg/mL), an MIC [16] of 64 µM (≈ 105 µg/mL) and an MIC [17] of at least 32 µM. It also gave an MIC [6] of over 64 µM, an MIC [18] of at least 64 µM and an MIC [19] of over 64 µM. It also gave an MIC [20] of 8 µM (≈ 13.1 µg/mL), an MIC [21] of 64 µM (≈ 105 µg/mL) and an MIC (Candida albicans) of 45.3 µM (≈ 74.4 µg/mL).
`C[C@H](NC(=O)[C@H](Cc1ccccc1)NC(=O)[C@H](CCCN=C(N)N)NC(=O)[C@H](CCCN=C(N)N)NC(=O)[C@H](C)NC(=O)[C@H](Cc1ccccc1)NC(=O)[C@H](CCCN=C(N)N)NC(=O)[C@H](CCCN=C(N)N)NC(=O)[C@H](C)NC(=O)[C@H](Cc1ccccc1)NC(=O)[C@H](CCCN=C(N)N)NC(=O)[C@H](CCCN=C(N)N)NC(=O)[C@H](C)NC(=O)[C@H](Cc1ccccc1)NC(=O)[C@H](CCCN=C(N)N)NC(=O)[C@H](CCCN=C(N)N)NC(=O)[C@H](C)NC(=O)[C@H](Cc1ccccc1)NC(=O)[C@H](CCCN=C(N)N)NC(=O)[C@H](CCCN=C(N)N)NC(=O)[C@H](C)NC(=O)[C@H](Cc1ccccc1)NC(=O)[C@H](CCCN=C(N)N)NC(=O)[C@H](CCCN=C(N)N)NC(=O)[C@H](C)NC(=O)[C@H](Cc1ccccc1)NC(=O)[C@@H](N)CCCN=C(N)N)C(=O)N[C@@H](CCCN=C(N)N)C(=O)O` [RFARRFARRFARRFARRFARRFARRFAR] gave an MIC [1] of 23.6 µM (≈ 88 µg/mL), an MIC [2] of 94.7 µM (≈ 354 µg/mL) and an MIC [3] of 16.6 µM (≈ 62 µg/mL). The MIC [4] was 11.9 µM (≈ 44.5 µg/mL) and the MIC [5] was at least 47.4 µM.
`CC(C)[C@@H]1NC(=O)CNC(=O)[C@H](CCCN=C(N)N)NC(=O)[C@H](C(C)C)NC(=O)[C@H](CCCN=C(N)N)NC(=O)[C@H](C)NC(=O)[C@H](Cc2ccc(O)cc2)NC(=O)[C@H](C(C)C)NC(=O)[C@@H](NC(=O)[C@H](Cc2c[nH]c3ccccc23)NC(=O)[C@@H](N)CCCN=C(N)N)CSSC[C@@H](C(=O)N[C@@H](CCCN=C(N)N)C(=O)O)NC(=O)[C@H](CCCN=C(N)N)NC(=O)[C@H](CCCN=C(N)N)NC(=O)[C@H](Cc2ccc(O)cc2)NC(=O)[C@H](CCCN=C(N)N)NC1=O` [RWCVYARVRGVRYRRCR] was tested, and the MIC (Escherichia coli C600) was 3.13 µM (≈ 7.05 µg/mL), the MIC [22] was 3.13 µM (≈ 7.05 µg/mL) and the MIC [15] was 6.25 µM (≈ 14.1 µg/mL).

Reference: DBAASP
